According to patent US20220409620A1, “REDUCING IMMUNOGENICITY TO PEGLOTICASE” (Horizon Pharma Rheumatology LLC, priority 2016, published 2022):
Like-named read-outs stand apart in the source and are kept apart here.

Assays:
[1] = system: adult patients with uncontrolled gout
Excerpt: As used herein, an “adverse event” or “AE” refers to any untoward medical occurrence associated with the use of a drug in humans, whether it is considered drug-related or not. An AE or suspected adverse reaction is considered a “serious adverse event” or “SAE” if, in the view of either the Investigator or Sponsor, it results in any of the following outcomes: (1) Death, (2) Life-threatening: an AE is considered “life-threatening” if, in the view of either the Investigator or Sponsor, its occurrence places the subject or subject at immediate risk of death. […] (5) A congenital anomaly/birth defect; (6) Important medical events that may not result in death, be life-threatening, or require hospitalization may be considered serious when, based upon appropriate medical judgment, they may jeopardize the patient or subject and may require medical or surgical intervention to prevent one of the outcomes listed in this definition.
Safety Variables: Safety was assessed via AE and concomitant medication use monitoring, physical examinations, vital signs, clinical safety laboratory evaluations (hematology, chemistry, urine uric acid:creatinine ratio), pregnancy testing (if applicable), electrocardiograms (ECGs), and AEs of special interest (i.e., IRs, anaphylaxis, gout flares, and cardiovascular events).
AEs of special interest may include IRs, anaphylaxis, gout flares, and cardiovascular events.
Severity in accordance with the disclosure is reported according to the following: Grade 1 (Mild)—No interference with daily activity. Grade 2 (Moderate)—Some interference with daily activity but medical intervention not required (e.g., doctor visit and/or medication); over the counter medicine permitted. Grade 3 (Severe)—Prevents daily activity and requires medical intervention (e.g., doctor visit and/or medication). Grade 4 (Potentially Life-threatening)—Emergency room visit or hospitalization.
An AE was defined as any untoward event, whether or not it was considered related to the use of pegloticase or MTX. Any worsening (i.e., any clinically significant adverse change in frequency or intensity) of a preexisting condition which was temporally associated with the use of pegloticase or MTX was also considered an AE. Abnormal laboratory values or test results constitute AEs only if they induce clinical signs or symptoms or require therapy, and were recorded on the AE CRF under the signs, symptoms or were associated with diagnoses associated with them. Screening conditions were not considered AE; however, worsening of a preexisting condition may be considered an AE. AEs were collected starting at the baseline, Visit 1.
TEAEs during the Pegloticase+IMM Period were defined as events that occur after the start of the first pegloticase infusion through 30 days after the last dose of pegloticase and/or MTX or placebo for MTX (whichever was later). TEAEs that occur during the MTX Tolerability Assessment Period prior to randomization (Weeks −6 to −4) was summarized separately for the MTX population. […] AEs that occur more than 30 days after the last dose of pegloticase and/or MTX or placebo for MTX through the 6-month follow-up visit was also summarized.
The number and percentage of subjects experiencing AEs were summarized by system organ class and preferred term. Summaries by maximum severity and relationship to MTX and/or pegloticase was also provided. SAEs and AEs leading to discontinuation of MTX and/or pegloticase were presented by system organ class and preferred term.

[2] = system: patients with refractory chronic gout; conditions: Phase 2 program; cited from earlier work
[3] = Methotrexate Run-in Period, ITT (N = 15)
[4] = Methotrexate Run-in Period, mITT (N = 14)

Molecule: CN(Cc1cnc2nc(N)nc(N)c2n1)c1ccc(C(=O)N[C@@H](CCC(=O)O)C(=O)O)cc1 [MTX, methotrexate]
- Infections And Infestations, % [1]: (13.3) %
- Abdominal Discomfort, % [1, 3]: (13.3) %
- Abdominal Discomfort, Incidence Rate [1, 3]: 1.8 Events/PY of MTX
- Any TEAEs, % [1, 3]: (66.7) %
- Any TEAEs, Incidence Rate [1, 3]: 18.2 Events/PY of MTX
- Blood And Lymphatic System Disorders, % [1, 3]: (6.7) %
- Blood And Lymphatic System Disorders, Incidence Rate [1, 3]: 1.8 Events/PY of MTX
- Chronic Sinusitis, % [1, 3]: (6.7) %
- Chronic Sinusitis, Incidence Rate [1, 3]: 0.9 Events/PY of MTX
- Cough, % [1, 3]: (6.7) %
- Cough, Incidence Rate [1, 3]: 0.9 Events/PY of MTX
- Dental Caries, % [1, 3]: (6.7) %
- Dental Caries, Incidence Rate [1, 3]: 0.9 Events/PY of MTX
- Diarrhoea, % [1, 3]: (6.7) %
- Diarrhoea, Incidence Rate [1, 3]: 0.9 Events/PY of MTX
- Dry Eye, % [1, 3]: (6.7) %
- Dry Eye, Incidence Rate [1, 3]: 0.9 Events/PY of MTX
- Eye Disorders, % [1, 3]: (6.7) %
- Eye Disorders, Incidence Rate [1, 3]: 0.9 Events/PY of MTX
- Gastrointestinal Disorders, % [1, 3]: (33.3) %
- Gastrointestinal Disorders, Incidence Rate [1, 3]: 5.5 Events/PY of MTX
- Gout, % [1, 3]: (33.3) %
- Gout, Incidence Rate [1, 3]: 5.5 Events/PY of MTX
- Headache, % [1, 3]: (6.7) %
- Headache, Incidence Rate [1, 3]: 0.9 Events/PY of MTX
- Leukopenia, % [1, 3]: (6.7) %
- Leukopenia, Incidence Rate [1, 3]: 0.9 Events/PY of MTX
- Metabolism And Nutrition Disorders, % [1, 3]: (33.3) %
- Metabolism And Nutrition Disorders, Incidence Rate [1, 3]: 5.5 Events/PY of MTX
- Nasopharyngitis, % [1, 3]: (6.7) %
- Nasopharyngitis, Incidence Rate [1, 3]: 0.9 Events/PY of MTX
- Nausea, % [1, 3]: (13.3) %
- Nausea, Incidence Rate [1, 3]: 1.8 Events/PY of MTX
- Nervous System Disorders, % [1, 3]: (6.7) %
- Nervous System Disorders, Incidence Rate [1, 3]: 0.9 Events/PY of MTX
- Neutropenia, % [1, 3]: (6.7) %
- Neutropenia, Incidence Rate [1, 3]: 0.9 Events/PY of MTX
- Pruritus, % [1, 3]: (6.7) %
- Pruritus, Incidence Rate [1, 3]: 0.9 Events/PY of MTX
- Respiratory, Thoracic And Mediastinal Disorders, % [1, 3]: (6.7) %
- Respiratory, Thoracic And Mediastinal Disorders, Incidence Rate [1, 3]: 0.9 Events/PY of MTX
- Skin And Subcutaneous Tissue Disorders, % [1, 3]: (6.7) %
- Skin And Subcutaneous Tissue Disorders, Incidence Rate [1, 3]: 0.9 Events/PY of MTX
- Abdominal Discomfort, % [1, 4]: (14.3) %
- Abdominal Discomfort, Incidence Rate [1, 4]: 2.0 Events/PY of MTX
- Any TEAEs, % [1, 4]: (71.4) %
- Any TEAEs, Incidence Rate [1, 4]: 20.0 Events/PY of MTX
- Blood And Lymphatic System Disorders, % [1, 4]: (7.1) %
- Blood And Lymphatic System Disorders, Incidence Rate [1, 4]: 2.0 Events/PY of MTX
- Chronic Sinusitis, % [1, 4]: (7.1) %
- Chronic Sinusitis, Incidence Rate [1, 4]: 1.0 Events/PY of MTX
- Cough, % [1, 4]: (7.1) %
- Cough, Incidence Rate [1, 4]: 1.0 Events/PY of MTX
- Dental Caries, % [1, 4]: (7.1) %
- Dental Caries, Incidence Rate [1, 4]: 1.0 Events/PY of MTX
- Diarrhoea, % [1, 4]: (7.1) %
- Diarrhoea, Incidence Rate [1, 4]: 1.0 Events/PY of MTX
- Dry Eye, % [1, 4]: (7.1) %
- Dry Eye, Incidence Rate [1, 4]: 1.0 Events/PY of MTX
- Eye Disorders, % [1, 4]: (7.1) %
- Eye Disorders, Incidence Rate [1, 4]: 1.0 Events/PY of MTX
- Gastrointestinal Disorders, % [1, 4]: (35.7) %
- Gastrointestinal Disorders, Incidence Rate [1, 4]: 6.0 Events/PY of MTX
- Gout, % [1, 4]: (35.7) %
- Gout, Incidence Rate [1, 4]: 6.0 Events/PY of MTX
- Headache, % [1, 4]: (7.1) %
- Headache, Incidence Rate [1, 4]: 1.0 Events/PY of MTX
- Infections And Infestations, % [1, 4]: (14.3) %
- Infections And Infestations, Incidence Rate [1, 4]: 2.0 Events/PY of MTX
- Infections And Infestations, Total Events [1, 4]: 2
- Leukopenia, % [1, 4]: (7.1) %
- Leukopenia, Incidence Rate [1, 4]: 1.0 Events/PY of MTX
- Metabolism And Nutrition Disorders, % [1, 4]: (35.7) %
- Metabolism And Nutrition Disorders, Incidence Rate [1, 4]: 6.0 Events/PY of MTX
- Nasopharyngitis, % [1, 4]: (7.1) %
- Nasopharyngitis, Incidence Rate [1, 4]: 1.0 Events/PY of MTX
- Nausea, % [1, 4]: (14.3) %
- Nausea, Incidence Rate [1, 4]: 2.0 Events/PY of MTX
- Nervous System Disorders, % [1, 4]: (7.1) %
- Nervous System Disorders, Incidence Rate [1, 4]: 1.0 Events/PY of MTX
- Neutropenia, % [1, 4]: (7.1) %
- Neutropenia, Incidence Rate [1, 4]: 1.0 Events/PY of MTX
- Pruritus, % [1, 4]: (7.1) %
- Pruritus, Incidence Rate [1, 4]: 1.0 Events/PY of MTX
- Respiratory, Thoracic And Mediastinal Disorders, % [1, 4]: (7.1) %
- Respiratory, Thoracic And Mediastinal Disorders, Incidence Rate [1, 4]: 1.0 Events/PY of MTX
- Skin And Subcutaneous Tissue Disorders, % [1, 4]: (7.1) %
- Skin And Subcutaneous Tissue Disorders, Incidence Rate [1, 4]: 1.0 Events/PY of MTX
- Infections And Infestations, Incidence Rate ([1]; human, in vivo, 4 weeks): 1.8 Events/PY of MTX
- Infections And Infestations, Total Events ([1]; human, in vivo, 4 weeks): 2
- tolerability of MTX ([1]; oral 15 mg/week, all patients): tolerated

Molecule: pegloticase
- dose-response plateau dose [2]: 12 mg
- minimally effective dose [2]: 4 mg
- safe and optimally effective dose [2]: 8 mg
